Laboratory results published in patent US20160166627A1, “JOINT HEALTH COMPOSITIONS” (NESTEC S.A., priority 2013, published 2016).
Structures can show the parent of a compound that is named as a salt.

Test system: tumor necrosis factor α (TNF-α)
Assay: Serum TNF-α (inflammation marker) in ovariectomized rats, Rat TNF-α Platinum ELISA
Format: in vivo, Sprague-Dawley rats
Settings: week 12 (end of study), vs OVX group, P<0.05
Procedure: Ovariectomized (OVX) rats were used as a model to mimic osteoarthritis in healthy postmenopausal women. The effect of fructus corni on suppressing markers of cartilage degeneration, cross linked C-telopeptide of type 2 collagen (CTX-II) and inflammation, tumor necrosis factor α (TNF-α), was examined. Seven month-old female Sprague-Dawley rats were purchased from Beijing Weitong Lihua Laboratory Animal Centre. Surgery was performed by the research team in Shenyang Medical College. The rats were anaesthetized with Hypnorm™/Dormicum™ (1 part Hypnorm™+1 part Dormicum™+2 parts sterile water) given by injection at 0.2 ml/100 g body weight. After anaesthesia the animal was shaved on the back and the skin disinfected. A single incision in the skin was made above the spine, providing access to both ovaries. The muscles were cut to provide access and the ovaries were located and removed by cutting. The muscle on each side was closed with 1-2 stitches, and the skin was closed with 3-4 stitches. […] Rats in group F had free access to distilled water containing 0.5% glucosamine and the amount of water consumed was recorded for each rat. […] CTX-II was measured using the Serum Preclinical Cartilaps ELISA (Nordic Bioscience, Herlev, Denmark). […] Serum TNFα was measured using Rat TNF-α Platinum ELISA (eBioscience, USA) for the serum collected at the end of the study only. […] Data were expressed as means±SD. […]

Compound: N[C@H]1C(O)O[C@H](CO)[C@@H](O)[C@@H]1O (stereo partly shown) [glucosamine, Glucosamine (GS) hydrochloride]
- serum TNF-α concentration, increase induced by OVX: not observed
